Measured values: ChEMBL document CHEMBL5724914, “Linking interpersonal differences in gut microbiota composition and drug biotransformation activity” (2024)

Assays:
[1] = human gut metagenome, 24 h, 2 µM
[2] = (§1) The drug is tested on Z-020 corresponding to rabbit gut metagenome with ENA study accession number: PRJEB37062 and ENA sample accession number: ERS12561819 for biotransformation under anaerobic condition. The drug concentrations were measured over 9 timepoints collected between 0 and 24 hours of incubation by liquid-chromatography-coupled mass spectrometry (LC–MS); details: 2 µM
[3] = as §1, with “Z-026” for “Z-020”, “to” for “to rabbit gut”, “ERS12561825” for “ERS12561819”; details: 2 µM
[4] = as §1, with “Z-021” for “Z-020”, “to” for “to rabbit gut”, “ERS12561820” for “ERS12561819”; details: 2 µM
[5] = as §1, with “WLS-007” for “Z-020”, “human” for “rabbit”, “ERS12561742” for “ERS12561819”; details: 2 µM
[6] = human gut metagenome, 24 h, 2 µM; remark: listed apart in the source
[7] = as §1, with “Z-014” for “Z-020”, “rat” for “rabbit”, “ERS12561814” for “ERS12561819”; details: 2 µM
[8] = human gut metagenome, 24 h, 2 µM; remark: listed apart in the source
[9] = as §1, with “WLS-027” for “Z-020”, “human” for “rabbit”, “ERS12561744” for “ERS12561819”; details: 2 µM
[10] = as §1, with “Z-004” for “Z-020”, “to” for “to rabbit gut”, “ERS12561804” for “ERS12561819”; details: 2 µM
[11] = as §1, with “Z-025” for “Z-020”, “ERS12561824” for “ERS12561819”; details: 2 µM
[12] = as §1, with “Z-022” for “Z-020”, “mouse” for “rabbit”, “ERS12561821” for “ERS12561819”; details: 2 µM
[13] = human gut metagenome, 24 h, 2 µM; remark: listed apart in the source
[14] = human gut metagenome, 24 h, 2 µM; remark: listed apart in the source
[15] = human gut metagenome, 24 h, 2 µM; remark: listed apart in the source
[16] = human gut metagenome, 24 h, 2 µM; remark: listed apart in the source
[17] = as §1, with “WLS-170” for “Z-020”, “human” for “rabbit”, “ERS12561762” for “ERS12561819”; details: 2 µM
[18] = human gut metagenome, 24 h, 2 µM; remark: listed apart in the source
[19] = as §1, with “Z-001” for “Z-020”, “mouse” for “rabbit”, “ERS12561801” for “ERS12561819”; details: 2 µM
[20] = human gut metagenome, 24 h, 2 µM; remark: listed apart in the source
Also: call rule not given here.

COc1ccc2[nH]c([S+]([O-])Cc3ncc(C)c(OC)c3C)nc2c1 (stereo not given) [OMEPRAZOLE]
Bacterial Biotransformation [1]: Compound metabolized
Bacterial Biotransformation [2]: Compound NOT metabolized
Bacterial Biotransformation [3]: Compound metabolized
Bacterial Biotransformation [4]: Compound NOT metabolized
Bacterial Biotransformation [5]: Compound metabolized
Bacterial Biotransformation [6]: Compound metabolized
Bacterial Biotransformation [7]: Compound NOT metabolized
Bacterial Biotransformation [8]: Compound metabolized
Bacterial Biotransformation [9]: Compound metabolized
Bacterial Biotransformation [10]: Compound metabolized
Bacterial Biotransformation [11]: Compound metabolized
Bacterial Biotransformation [12]: Compound NOT metabolized
Bacterial Biotransformation [13]: Compound metabolized
Bacterial Biotransformation [14]: Compound metabolized
Bacterial Biotransformation [15]: Compound metabolized
Bacterial Biotransformation [16]: Compound metabolized
Bacterial Biotransformation [17]: Compound metabolized
Bacterial Biotransformation [18]: Compound metabolized
Bacterial Biotransformation [19]: Compound NOT metabolized
Bacterial Biotransformation [20]: Compound metabolized

O=C(O)CCc1nc(-c2ccccc2)c(-c2ccccc2)o1 [OXAPROZIN]
Bacterial Biotransformation [1]: Compound metabolized
Bacterial Biotransformation [2]: Compound metabolized
Bacterial Biotransformation [3]: Compound NOT metabolized
Bacterial Biotransformation [4]: Compound metabolized
Bacterial Biotransformation [5]: Compound metabolized
Bacterial Biotransformation [6]: Compound metabolized
Bacterial Biotransformation [7]: Compound NOT metabolized
Bacterial Biotransformation [8]: Compound metabolized
Bacterial Biotransformation [9]: Compound metabolized
Bacterial Biotransformation [10]: Compound NOT metabolized
Bacterial Biotransformation [11]: Compound metabolized
Bacterial Biotransformation [12]: Compound metabolized
Bacterial Biotransformation [13]: Compound metabolized
Bacterial Biotransformation [14]: Compound metabolized
Bacterial Biotransformation [15]: Compound metabolized
Bacterial Biotransformation [16]: Compound NOT metabolized
Bacterial Biotransformation [17]: Compound metabolized
Bacterial Biotransformation [18]: Compound metabolized
Bacterial Biotransformation [19]: Compound NOT metabolized
Bacterial Biotransformation [20]: Compound metabolized

CC(C)(C)NC[C@H](O)COc1ccccc1C1CCCC1.CC(C)(C)NC[C@H](O)COc1ccccc1C1CCCC1.O=S(=O)(O)O [PENBUTOLOL SULFATE]
Bacterial Biotransformation [1]: Compound NOT metabolized
Bacterial Biotransformation [2]: Compound metabolized
Bacterial Biotransformation [3]: Compound NOT metabolized
Bacterial Biotransformation [4]: Compound metabolized
Bacterial Biotransformation [5]: Compound metabolized
Bacterial Biotransformation [6]: Compound metabolized
Bacterial Biotransformation [7]: Compound NOT metabolized
Bacterial Biotransformation [8]: Compound metabolized
Bacterial Biotransformation [9]: Compound metabolized
Bacterial Biotransformation [10]: Compound metabolized
Bacterial Biotransformation [11]: Compound NOT metabolized
Bacterial Biotransformation [12]: Compound metabolized
Bacterial Biotransformation [13]: Compound metabolized
Bacterial Biotransformation [14]: Compound metabolized
Bacterial Biotransformation [15]: Compound metabolized
Bacterial Biotransformation [16]: Compound metabolized
Bacterial Biotransformation [17]: Compound metabolized
Bacterial Biotransformation [18]: Compound NOT metabolized
Bacterial Biotransformation [19]: Compound metabolized
Bacterial Biotransformation [20]: Compound metabolized

CCOc1ccc(NC(C)=O)cc1 [PHENACETIN]
Bacterial Biotransformation [1]: Compound NOT metabolized
Bacterial Biotransformation [2]: Compound NOT metabolized
Bacterial Biotransformation [3]: Compound NOT metabolized
Bacterial Biotransformation [4]: Compound NOT metabolized
Bacterial Biotransformation [5]: Compound NOT metabolized
Bacterial Biotransformation [6]: Compound NOT metabolized
Bacterial Biotransformation [7]: Compound NOT metabolized
Bacterial Biotransformation [8]: Compound NOT metabolized
Bacterial Biotransformation [9]: Compound NOT metabolized
Bacterial Biotransformation [10]: Compound NOT metabolized
Bacterial Biotransformation [11]: Compound NOT metabolized
Bacterial Biotransformation [12]: Compound NOT metabolized
Bacterial Biotransformation [13]: Compound NOT metabolized
Bacterial Biotransformation [14]: Compound NOT metabolized
Bacterial Biotransformation [15]: Compound NOT metabolized
Bacterial Biotransformation [16]: Compound NOT metabolized
Bacterial Biotransformation [17]: Compound NOT metabolized
Bacterial Biotransformation [18]: Compound NOT metabolized
Bacterial Biotransformation [19]: Compound NOT metabolized
Bacterial Biotransformation [20]: Compound NOT metabolized

CC(C(=O)O)c1ccc2c(c1)Cc1cccnc1O2 (stereo not given) [PRANOPROFEN]
Bacterial Biotransformation [1]: Compound metabolized
Bacterial Biotransformation [2]: Compound metabolized
Bacterial Biotransformation [3]: Compound NOT metabolized
Bacterial Biotransformation [4]: Compound metabolized
Bacterial Biotransformation [5]: Compound metabolized
Bacterial Biotransformation [6]: Compound metabolized
Bacterial Biotransformation [7]: Compound NOT metabolized
Bacterial Biotransformation [8]: Compound metabolized
Bacterial Biotransformation [9]: Compound metabolized
Bacterial Biotransformation [10]: Compound metabolized
Bacterial Biotransformation [11]: Compound metabolized
Bacterial Biotransformation [12]: Compound metabolized
Bacterial Biotransformation [13]: Compound metabolized
Bacterial Biotransformation [14]: Compound metabolized
Bacterial Biotransformation [15]: Compound metabolized
Bacterial Biotransformation [16]: Compound metabolized
Bacterial Biotransformation [17]: Compound metabolized
Bacterial Biotransformation [18]: Compound metabolized
Bacterial Biotransformation [19]: Compound metabolized
Bacterial Biotransformation [20]: Compound metabolized

CCc1nc(N)nc(N)c1-c1ccc(Cl)cc1 [PYRIMETHAMINE]
Bacterial Biotransformation [1]: Compound NOT metabolized
Bacterial Biotransformation [2]: Compound NOT metabolized
Bacterial Biotransformation [3]: Compound NOT metabolized
Bacterial Biotransformation [4]: Compound NOT metabolized
Bacterial Biotransformation [5]: Compound metabolized
Bacterial Biotransformation [6]: Compound NOT metabolized
Bacterial Biotransformation [7]: Compound NOT metabolized
Bacterial Biotransformation [8]: Compound NOT metabolized
Bacterial Biotransformation [9]: Compound NOT metabolized
Bacterial Biotransformation [10]: Compound NOT metabolized
Bacterial Biotransformation [11]: Compound NOT metabolized
Bacterial Biotransformation [12]: Compound metabolized
Bacterial Biotransformation [13]: Compound metabolized
Bacterial Biotransformation [14]: Compound NOT metabolized
Bacterial Biotransformation [15]: Compound metabolized
Bacterial Biotransformation [16]: Compound NOT metabolized
Bacterial Biotransformation [17]: Compound NOT metabolized
Bacterial Biotransformation [18]: Compound NOT metabolized
Bacterial Biotransformation [19]: Compound NOT metabolized
Bacterial Biotransformation [20]: Compound NOT metabolized

COc1ccccc1OCC(O)CN1CCN(CC(=O)Nc2c(C)cccc2C)CC1 (stereo not given) [RANOLAZINE]
Bacterial Biotransformation [1]: Compound NOT metabolized
Bacterial Biotransformation [2]: Compound NOT metabolized
Bacterial Biotransformation [3]: Compound NOT metabolized
Bacterial Biotransformation [4]: Compound metabolized
Bacterial Biotransformation [5]: Compound NOT metabolized
Bacterial Biotransformation [6]: Compound NOT metabolized
Bacterial Biotransformation [7]: Compound NOT metabolized
Bacterial Biotransformation [8]: Compound NOT metabolized
Bacterial Biotransformation [9]: Compound NOT metabolized
Bacterial Biotransformation [10]: Compound NOT metabolized
Bacterial Biotransformation [11]: Compound NOT metabolized
Bacterial Biotransformation [12]: Compound metabolized
Bacterial Biotransformation [13]: Compound NOT metabolized
Bacterial Biotransformation [14]: Compound NOT metabolized
Bacterial Biotransformation [15]: Compound NOT metabolized
Bacterial Biotransformation [16]: Compound NOT metabolized
Bacterial Biotransformation [17]: Compound NOT metabolized
Bacterial Biotransformation [18]: Compound NOT metabolized
Bacterial Biotransformation [19]: Compound NOT metabolized
Bacterial Biotransformation [20]: Compound NOT metabolized

Cc1nc2n(c(=O)c1CCN1CCC(c3noc4cc(F)ccc34)CC1)CCCC2 [RISPERIDONE]
Bacterial Biotransformation [1]: Compound metabolized
Bacterial Biotransformation [2]: Compound metabolized
Bacterial Biotransformation [3]: Compound NOT metabolized
Bacterial Biotransformation [4]: Compound metabolized
Bacterial Biotransformation [5]: Compound metabolized
Bacterial Biotransformation [6]: Compound metabolized
Bacterial Biotransformation [7]: Compound metabolized
Bacterial Biotransformation [8]: Compound metabolized
Bacterial Biotransformation [9]: Compound metabolized
Bacterial Biotransformation [10]: Compound metabolized
Bacterial Biotransformation [11]: Compound metabolized
Bacterial Biotransformation [12]: Compound metabolized
Bacterial Biotransformation [13]: Compound metabolized
Bacterial Biotransformation [14]: Compound metabolized
Bacterial Biotransformation [15]: Compound metabolized
Bacterial Biotransformation [16]: Compound metabolized
Bacterial Biotransformation [17]: Compound metabolized
Bacterial Biotransformation [18]: Compound NOT metabolized
Bacterial Biotransformation [19]: Compound metabolized
Bacterial Biotransformation [20]: Compound metabolized
